According to patent publication US11203773B2, “Designer ribosomes and methods of use thereof for incorporating non-standard amino acids into polypeptides” (Yale University, priority 2016, dated 2021):
Read-outs that look alike come from different tables or passages of the source.

Assays:
[1] = tested on: E. coli strains (BL21 (DE3)) with pUC18 rrnb plasmids; assay: Screen of library for sensitivity to erythromycin (growth inhibition, OD600); format: cell-based; settings: 6.8 μM erythromycin, E. coli with pUC18 plasmid encoding WT rrnb, 16-18 h
Protocol: (§3) To screen the resulting E. coli strains for antibiotic resistance, 2 μL of the 15% glycerol stocks prepared above were added to 98 μL of growth assay buffer (LB media (pH 8.35), 100 μg/mL carbenicillin, 1.0 mM IPTG, 6.8 μM erythromycin) in 384-well plates (Corning #3707). […] After 16-18 h, the extent of cell growth inhibition in the presence of antibiotic was determined by measuring the OD600 of each well using a SpectraMax M5 plate reader (Molecular Devices). The antibiotic-dependent inhibition of cell growth in each well was determined using Equation 4: [100−(OD600+A/OD600−A)×100] Equation 4 In this equation, OD600+A represents OD600 of wells containing antibiotic and OD600−A represents OD600 of wells lacking antibiotic.

[2] = biological target: T1, E. coli GlyRS (Escherichia coli, UniProt P00960); settings: aminoacylation; for kcat: 2 μM tRNA
[3] = biological target: T1, E. coli GlyRS; settings: adenylation; for kcat (min^−1) or RSA (^32P-ATP formed min^−1 enzyme μM^−1): 25° C., pH 7.0
Protocol: Adenylation of α- and β-Amino Acids Catalyzed by E. coli PheRS, GlyRS, MetRS, and GluRS. […] Briefly, assay mixtures (50 μL) assembled at 25° C. contained the requisite α- or β^3-amino acid substrate (between 5 μM and 5 mM) in 100 mM HEPES (pH 7.0) containing 100 mM KCl, 15 mM MgCl2, 2 mM ATP, 0.5 mM NaPPi, and 50 μCi [^32P]-NaPPi). Reactions were initiated upon addition of enzyme (10 nM MetRS, 10 nM PheRS, or 50 nM GlyRS; 100 nM GluRS for reactions with α-Glu or 1.13 μM GluRS for reactions with β^3-Glu), incubated for various times (10 sec to 10 min), and halted by adding a 5 μL reaction aliquot to 100 μL quenching solution (10% charcoal, 0.5% HCl). 50 μL of 200 mM NaPPi in 1.5 N HCl was then added to each quenched reaction to decrease nonspecific binding of pyrophosphate to the charcoal. Each quenched reaction was then filtered through Whatman filter paper (number 3), previously washed with washing solution (200 mM NaPPi in 1 N HCl) using a 96-well BIO-DOT® apparatus (BioRad). Each well of the apparatus was then washed four times with 200 μL aliquots of washing solution (by pipetting washing solution up and down at least 10 times per wash) to minimize nonspecific binding of pyrophosphate to charcoal. Each experimental well was paired with an analogous control well (no-enzyme control) that lacked enzyme; a single membrane contained time points for both α- and β^3-amino acid substrates and all no-enzyme controls. The membrane was allowed to dry and was protected with a sheet of Microseal B adhesive seals (Biorad) prior to exposure to a BAS Storage Phosphor screen. Screens were imaged on a Typhoon 9500FLA biomolecule imager and the signal intensity of each dot was quantified using ImageJ to determine the relative amount of [^32P]-ATP formed as a function of time (Ctime). Each raw value were corrected by subtracting the intensity of the dot corresponding to the appropriate no-enzyme control (Cblank) and the resulting corrected values of Ccorr (representing the relative amounts of ^32P-ATP formed) were plotted as a function of time to determine values of relative ^32P-ATP formed per minute. Those values were divided by the concentration of enzyme used, and the data was plotted as relative specific activity (^32P-ATP formed min^−1×μM^−1 enzyme) and fitted using Prism by performing nonlinear regression using the least squares method and Equation 1 to obtain RSA (relative specific activity) and KM values (Equation 1 and Table 2).
In Equation 1, v is the apparent relative specific activity (relative ^32P-ATP formed per minute) obtained at each substrate concentration divided by the enzyme concentration, RSA is the relative specific activity, S is the concentration of substrate, and KM is the Michaelis-Menten constant.

[4] = biological target: T1, E. coli GlyRS; settings: for krev (apparent rate of deacylation): deacylation of aminoacyl-tRNA, GlyRS 2 μM, 25° C.
Protocol: Deacylation assays. Large scale (200 μL) aminoacylation reactions were initiated using the conditions described above (iv). The reactions were allowed to proceed for 1 h at 37° C., after which each reaction mixture was phenol/chloroform extracted. In each case, the aminoacylated tRNA product was ethanol precipitated, and the buffer was exchanged using a micro Bio-Spin 6 column (BioRad) following the procedure specified by the manufacturer and 100 mM HEPES (pH 8.0) containing 100 mM KCl. The precise extent of aminoacylation was calculated using the procedure described above; the 2 μM concentration corresponds to total aminoacylated tRNA. Assays were performed at 25° C. in a 50 μL reaction with 2 μM [^32P]-aminoacyl-tRNA in 100 mM HEPES (pH 7.0) containing 100 mM KCl and 15 mM MgCl2.

[5] = tested on: BL21(DE3) cells expressing 040329 ribosomes along with WT ribosomes; assay: Expression of DHFR in 19/20 minimal media supplemented with amino acid (SDS-PAGE); format: cell-based, E. coli; settings: 040329 + WT ribosomes, media supplemented with 1 mM of the amino acid
Text: (§1) To evaluate the extent of in vivo β^3-amino acid incorporation, BL21 (DE3) cells were co-transformed via electroporation (vide infra) with two plasmids. […] The other plasmid encoded either the WT rrnb sequence (pLK35-rrnb), the 040329 mutant reported by Hecht (pLK35-040329.rrnb), or the P7A7 mutant (pLK35-P7A7.rrnb) identified during the puromycin sensitivity screen described above.
(§2) ii. β^3-amino acid incorporation. The subsequent protocol for in vivo β^3-amino acid incorporation employed minimal media and was adapted from procedures reported by Tirrell and Cropp (Liu, et al., Bioorg Med Chem Lett, 20:5613 (2010); Mandavi, et al., J Am Chem Soc, 135:2979 (2013)). Briefly, all 5 mL of the co-transformed cells prepared as described above were diluted into 100 mL of LB containing 50 ng/mL of kanamycin and […] of carbenicillin and grown to OD600=1.0, spun down, and then resuspended in 1/10th the original volume of 19/20 minimal media (10.5 g/L M9 salts, 0.1 mM CaCl2, 1 mM MgSO4, 1% glycerol, 100 μM of each amino acid (minus α-Phe), 25 mg/L thiamine, […] carbenicillin, 30 ng/mL kanamycin, 1 mM IPTG) supplemented with 1 mM of α-Phe or a β^3-Phe analog. Cells were grown overnight (18 h) at 37° C. while shaking (200 rpm). The cells were harvested by centrifugation (10 min at 4000×g) and resuspended in lysis buffer (50 mM NaH2PO4, 300 mM NaCl, 10 mM imidazole (pH 8.0)). Lysis was performed by sonication (Branson Sonifier 250) with 5 cycles of 20 s on, 20 s off. Lysed cells were then centrifuged for 20 min at 15000×g. The clarified cell lysate was incubated with Ni-NTA resin (Qiagen) for 1 h while gently rotating at 4° C. The Ni-NTA column was washed with lysis buffer prior to eluting proteins with elution buffer (50 mM NaH2PO4, 300 mM NaCl, 300 mM imidazole (pH 8.0)). Elutions were analyzed with SDS-PAGE to prepare material for in-gel trypsin digestions. Controls included side-by-side growths in (1) unsupplemented 19/20 minimal media, which contains only low levels of α-Phe present (negative control); (2). 19/20 minimal media supplemented with 1 mM α-Phe (positive control) and (3) and 19/20 minimal media supplemented with 1 mM β^3-Gly (negative control; β^3-aa that is not a β^3-Phe analog).

[6] = tested on: BL21(DE3) cells expressing P7A7 ribosomes along with WT ribosomes; assay: as above; format: cell-based, E. coli; settings: media supplemented with 1 mM of the amino acid
Text: as §1, §2

[7] = tested on: BL21(DE3) cells expressing only WT ribosomes; assay: as above; format: cell-based, E. coli; settings: 19/20 minimal media supplemented with 1 mM of the amino acid
Text: as §1, §2

[8] = tested on: DHFR position 128 translated in E. coli BL21 (DE3); assay: Spectral counting (LC-MS/MS of tryptic peptides) of β3-(p-Br)Phe and α-Phe incorporation into DHFR in vivo; format: cell-based; settings: cells expressing 040329 ribosomes
Text: as §1
as §2, with “19/20 minimal media supplemented with 1 mM α-Phe (positive control) and (3) and 19/20 minimal media supplemented with 1 mM β^3-Gly (negative control; β^3-aa that is not a β^3-Phe analog).” left out

[9] = tested on: E. coli strains (BL21 (DE3)) with pUC18 rrnb plasmids; assay: Screen of erythromycin-resistant library for sensitivity to β3-puromycin (growth inhibition, OD600); format: cell-based; settings: 250 μM β^3-puromycin, E. coli with pUC18 plasmid encoding WT rrnb
Protocol: as §3
The 1986 erythromycin-resistant clones identified above were then screened for sensitivity to β^3-puromycin sensitivity as described above, except that 250 μM β^3-puromycin was substituted for erythromycin.

T1 sequence (P00960 whole entry): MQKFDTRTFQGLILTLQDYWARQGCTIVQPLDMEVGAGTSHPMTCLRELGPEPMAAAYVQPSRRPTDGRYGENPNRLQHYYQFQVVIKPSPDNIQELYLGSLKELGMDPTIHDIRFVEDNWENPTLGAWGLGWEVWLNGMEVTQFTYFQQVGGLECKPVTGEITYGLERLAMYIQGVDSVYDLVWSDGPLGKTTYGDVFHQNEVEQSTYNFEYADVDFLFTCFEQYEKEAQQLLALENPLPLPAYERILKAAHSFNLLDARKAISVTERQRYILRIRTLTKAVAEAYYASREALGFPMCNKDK
T1 sequence (P00961 whole entry, further chain): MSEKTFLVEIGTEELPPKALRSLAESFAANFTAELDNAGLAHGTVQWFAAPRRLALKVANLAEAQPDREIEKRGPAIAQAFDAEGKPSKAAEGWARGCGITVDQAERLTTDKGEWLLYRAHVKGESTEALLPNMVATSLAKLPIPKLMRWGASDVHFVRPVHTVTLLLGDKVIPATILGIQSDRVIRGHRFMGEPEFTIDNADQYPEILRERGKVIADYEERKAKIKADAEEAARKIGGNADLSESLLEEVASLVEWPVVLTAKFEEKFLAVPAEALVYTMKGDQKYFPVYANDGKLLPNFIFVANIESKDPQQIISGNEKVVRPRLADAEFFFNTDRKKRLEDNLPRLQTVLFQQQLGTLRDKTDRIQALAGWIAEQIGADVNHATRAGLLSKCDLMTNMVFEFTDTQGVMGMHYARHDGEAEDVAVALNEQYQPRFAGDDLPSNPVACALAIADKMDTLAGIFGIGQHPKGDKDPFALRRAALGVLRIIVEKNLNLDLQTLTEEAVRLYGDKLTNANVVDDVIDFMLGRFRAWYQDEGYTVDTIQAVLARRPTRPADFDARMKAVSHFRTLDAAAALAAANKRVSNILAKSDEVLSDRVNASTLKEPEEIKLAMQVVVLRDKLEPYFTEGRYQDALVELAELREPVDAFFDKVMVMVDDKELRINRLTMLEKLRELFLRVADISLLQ

## CC[C@H]1OC(=O)[C@H](C)[C@@H](O[C@H]2C[C@@](C)(OC)[C@@H](O)[C@H](C)O2)[C@H](C)[C@@H](O[C@@H]2O[C@H](C)C[C@H](N(C)C)[C@H]2O)[C@](C)(O)C[C@@H](C)C(=O)[C@H](C)[C@@H](O)[C@]1(C)O [erythromycin]
[1]
  growth inhibition: full growth inhibition

## NCC(=O)O [α-Gly, Glycine]
[2]
  Km: 13.4 ± 4.7 µM
  Ratio (α/β) of KM: 1.2 ± 1.00
  Ratio (α/β) of kcat: 1.9 ± 1.0
  Ratio (α/β) of kcat/KM: 1.5 ± 0.7
  kcat: 5.8 ± 0.5 min⁻¹
[3]
  Km: 9.8 ± 3.5 µM
  Ratio (α-/β-) of KM: 0.14 ± 0.11
  Ratio (α-/β-) of RSA: 1.14 ± 0.24
  Ratio (α-/β-) of kcat/KM: 7.97 ± 6.46
  kcat (min^−1) or RSA (^32P-ATP formed min^−1 enzyme μM^−1): 166.8 ± 12.8 ^32P-ATP formed min^−1 enzyme μM^−1
[4]
  krev (apparent rate of deacylation): 0.21 ± 0.08 min⁻¹
[4]; deacylation, GlyRS
  Ratio (α/β) of krev: 0.3 ± 0.1

## NCCC(=O)O [β-Gly, β^3-glycine]
[2]
  Km: 11.1 ± 2.8 µM
  kcat: 3.1 ± 0.1 min⁻¹
[5]
  level of DHFR: significant levels
[6]
  level of DHFR: lower levels
[7]
  amount of DHFR generated: trace amounts
[8]
  incorporation at position 128 of DHFR (LC-MS/MS): no evidence
[3]
  Km: 68.4 ± 47.3 µM
  kcat (min^−1) or RSA (^32P-ATP formed min^−1 enzyme μM^−1): 146.4 ± 29.2 ^32P-ATP formed min^−1 enzyme μM^−1
[4]
  krev (apparent rate of deacylation): 0.71 ± 0.09 min⁻¹

## COc1ccc(CC(N)CC(=O)NC2C(CO)OC(n3cnc4c(N(C)C)ncnc43)C2O)cc1 (stereo not drawn) [β^3-puromycin]
[9]
  growth inhibition: lack of growth inhibition
